Experimental data: PubChem BioAssay (NCI)
Values joined by “and” are separate entries in the source; they are usually repeats but may differ in a detail not shown here. Identical values can stand only once.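 Growth conditions: 96-well plates. Treatment: test compound, 48 hours, 5 concentrations. Analysis: linear interpolation between bracketing concentrations; unreached endpoints set to highest concentration. GI50 = concentration required for 50% inhibition of growth. Definition used: TGI = concentration required for complete inhibition of growth.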

What was measured:
Assay in all cases: NCI anticancer screen, dose series, 48 h
MDA-MB-231 breast = tested on: MDA-MB-231 breast
U251 CNS = tested on: U251 CNS
UO-31 renal = tested on: UO-31 renal
SK-MEL-2 melanoma = tested on: SK-MEL-2 melanoma
NCI-H522 lung = tested on: NCI-H522 lung
LOX IMVI melanoma = tested on: LOX IMVI melanoma
SK-MEL-28 melanoma = tested on: SK-MEL-28 melanoma
EKVX NSCLC = tested on: EKVX NSCLC
HS 578T breast = tested on: HS 578T breast
NCI-H460 lung = tested on: NCI-H460 lung

Compound CN(Cc1cccc(Cl)c1)c1ccc(CO)c(Cl)c1 has a GI50 (MDA-MB-231 breast) of 17.4 µM, a TGI (MDA-MB-231 breast) of 59.9 µM and a GI50 (U251 CNS) of 4.21 µM. For the same compound, the TGI (U251 CNS) was 19.2 µM, the GI50 (UO-31 renal) was 8.41 µM and the TGI (UO-31 renal) was 37.4 µM. The GI50 (SK-MEL-2 melanoma) was 9.88 µM, the TGI (SK-MEL-2 melanoma) was 27.4 µM and the GI50 (NCI-H522 lung) was 17.2 µM. For the same compound, the TGI (NCI-H522 lung) was 41.4 µM, the GI50 (LOX IMVI melanoma) was 14.2 µM and the TGI (LOX IMVI melanoma) was 27.5 µM. It also gave a GI50 (SK-MEL-28 melanoma) of 16.4 µM, a TGI (SK-MEL-28 melanoma) of 43.9 µM and a GI50 (EKVX NSCLC) of 18.4 µM. For the same compound, the TGI (EKVX NSCLC) was 52.1 µM, the GI50 (HS 578T breast) was 19.7 µM and the TGI (HS 578T breast) was > 64.5 µM. The GI50 (NCI-H460 lung) was 1.44 µM and the TGI (NCI-H460 lung) was 15.2 µM.
O=C1COCCN1c1ccc(NCc2cn(Cc3ccc(F)cc3)c3ccccc23)cc1 showed a GI50 (MDA-MB-231 breast) of 4.9 µM, a TGI (MDA-MB-231 breast) of 27.5 µM and a GI50 (U251 CNS) of 0.645 µM. For the same compound, the TGI (U251 CNS) was 38.5 µM, the GI50 (UO-31 renal) was 2.42 µM and the TGI (UO-31 renal) was 18.2 µM. For the same compound, the GI50 (SK-MEL-2 melanoma) was 0.779 µM, the TGI (SK-MEL-2 melanoma) was 6.06 µM and the GI50 (NCI-H522 lung) was 2.75 µM. The TGI (NCI-H522 lung) was 17.8 µM, the GI50 (LOX IMVI melanoma) was 5.32 µM and the TGI (LOX IMVI melanoma) was 25.3 µM. The GI50 (SK-MEL-28 melanoma) was 15.4 µM, the TGI (SK-MEL-28 melanoma) was 77.9 µM and the GI50 (EKVX NSCLC) was 10.8 µM. For the same compound, the TGI (EKVX NSCLC) was > 66.7 µM, the GI50 (HS 578T breast) was 3.41 µM and the TGI (HS 578T breast) was 44.1 µM. For the same compound, the GI50 (NCI-H460 lung) was 0.133 µM and the TGI (NCI-H460 lung) was 29.2 µM.
CC/C(=C(/c1ccc(Cl)cc1)c1ccc(OCCCN(C)C)cc1)c1ccc(OC)cc1 showed a GI50 (MDA-MB-231 breast) of 1.3 µM, a TGI (MDA-MB-231 breast) of 3.29 µM and a GI50 (U251 CNS) of 1.66 µM. The TGI (U251 CNS) was 5.4 µM, the GI50 (UO-31 renal) was 5.3 µM and the TGI (UO-31 renal) was 11.8 µM. It also gave a GI50 (SK-MEL-2 melanoma) of 8.01 µM, a TGI (SK-MEL-2 melanoma) of 15.6 µM and a GI50 (NCI-H522 lung) of 6.56 µM. For the same compound, the TGI (NCI-H522 lung) was 13.7 µM, the GI50 (LOX IMVI melanoma) was 0.868 µM and the TGI (LOX IMVI melanoma) was 1.64 µM. For the same compound, the GI50 (SK-MEL-28 melanoma) was 1.33 µM, the TGI (SK-MEL-28 melanoma) was 3.84 µM and the GI50 (EKVX NSCLC) was 5.76 µM. For the same compound, the TGI (EKVX NSCLC) was 12.6 µM, the GI50 (HS 578T breast) was 7.08 µM and the TGI (HS 578T breast) was 16.9 µM. The GI50 (NCI-H460 lung) was 1.1 µM and the TGI (NCI-H460 lung) was 2.46 µM.
For O=C(Nc1ccc(-n2cc(-c3ccncc3)c(-c3ccc(Cl)c(O)c3)n2)cc1)c1ccc(Cl)c(C(F)(F)F)c1, the GI50 (MDA-MB-231 breast) was 0.322 µM, the TGI (MDA-MB-231 breast) was 1.48 µM and the GI50 (U251 CNS) was 0.895 µM. It also gave a TGI (U251 CNS) of 2.91 µM, a GI50 (UO-31 renal) of 0.684 µM and a TGI (UO-31 renal) of 2.42 µM. For the same compound, the GI50 (SK-MEL-2 melanoma) was 1.61 µM, the TGI (SK-MEL-2 melanoma) was 4.69 µM and the GI50 (NCI-H522 lung) was 1.14 µM. It also gave a TGI (NCI-H522 lung) of 4.04 µM, a GI50 (LOX IMVI melanoma) of 0.344 µM and a TGI (LOX IMVI melanoma) of 1.58 µM. The GI50 (SK-MEL-28 melanoma) was 1.18 µM, the TGI (SK-MEL-28 melanoma) was 3.6 µM and the GI50 (EKVX NSCLC) was 4.65 µM. For the same compound, the TGI (EKVX NSCLC) was > 25 µM, the GI50 (HS 578T breast) was 0.538 µM and the GI50 (NCI-H460 lung) was 1.43 µM. It also gave a TGI (NCI-H460 lung) of 11.1 µM.
Nc1c(C(=O)Nc2cccc3ccccc23)sc2nc3c(cc12)CCCCCC3 was tested, and the GI50 (MDA-MB-231 breast) was 2.75 µM, the TGI (MDA-MB-231 breast) was > 50 µM and the GI50 (U251 CNS) was 1.87 µM. The TGI (U251 CNS) was > 50 µM, the GI50 (UO-31 renal) was 5.6 µM and the TGI (UO-31 renal) was > 50 µM. The GI50 (SK-MEL-2 melanoma) was 17 µM, the TGI (SK-MEL-2 melanoma) was > 50 µM and the GI50 (NCI-H522 lung) was 0.865 µM. The TGI (NCI-H522 lung) was 4.33 µM, the GI50 (LOX IMVI melanoma) was 1.96 µM and the TGI (LOX IMVI melanoma) was > 50 µM. For the same compound, the GI50 (SK-MEL-28 melanoma) was > 50 µM, the TGI (SK-MEL-28 melanoma) was > 50 µM and the GI50 (EKVX NSCLC) was 2.9 µM. The TGI (EKVX NSCLC) was > 50 µM, the GI50 (HS 578T breast) was 1.59 µM and the TGI (HS 578T breast) was > 50 µM. For the same compound, the GI50 (NCI-H460 lung) was 1.76 µM and the TGI (NCI-H460 lung) was > 50 µM.
O=C1/C=C/[C@@H](O)[C@@H]2C[C@@H](O)C[C@H]2/C=C/CCCCO1 was tested, and the GI50 (MDA-MB-231 breast) was 0.298 µM, the TGI (MDA-MB-231 breast) was 1.31 µM and the GI50 (U251 CNS) was 0.408 µM. For the same compound, the TGI (U251 CNS) was > 100 µM, the GI50 (UO-31 renal) was 0.304 µM and the TGI (UO-31 renal) was > 38.1 µM. It also gave a GI50 (SK-MEL-2 melanoma) of 0.257 µM, a GI50 (NCI-H522 lung) of 1.77 µM and a TGI (NCI-H522 lung) of 5.63 µM. The GI50 (LOX IMVI melanoma) was 0.223 µM, the TGI (LOX IMVI melanoma) was 0.539 µM and the GI50 (SK-MEL-28 melanoma) was 0.28 µM. The GI50 (EKVX NSCLC) was 0.519 µM, the TGI (EKVX NSCLC) was > 21.4 µM and the GI50 (HS 578T breast) was 0.282 µM. The TGI (HS 578T breast) was > 100 µM, the GI50 (NCI-H460 lung) was 1.77 µM and the TGI (NCI-H460 lung) was > 100 µM.
With COc1nc(C(Cl)(Cl)Cl)c(Cl)c(OC)c1Cl the TGI (MDA-MB-231 breast) was 72.5 µM, the TGI (U251 CNS) was 69.9 µM and the TGI (UO-31 renal) was > 64.3 µM and 75.4 µM. For the same compound, the TGI (SK-MEL-2 melanoma) was > 31.6 µM and 70.8 µM, the TGI (NCI-H522 lung) was > 31.6 µM and 70.4 µM and the TGI (LOX IMVI melanoma) was 62.6 µM. The GI50 (SK-MEL-28 melanoma) was > 50.4 µM, the TGI (SK-MEL-28 melanoma) was > 83.5 µM and 75.6 µM and the GI50 (EKVX NSCLC) was > 55.4 µM. The TGI (EKVX NSCLC) was > 94.7 µM and 78.3 µM, the TGI (HS 578T breast) was 75.5 µM and the GI50 (NCI-H460 lung) was > 39.4 µM. The TGI (NCI-H460 lung) was > 57.9 µM and 61.2 µM.
COc1cc(Cl)c(C)cc1NC(=O)c1cc2ccccc2cc1O was tested, and the GI50 (MDA-MB-231 breast) was 1.19 µM, the TGI (MDA-MB-231 breast) was 2.72 µM and the GI50 (U251 CNS) was 2.2 µM. The TGI (U251 CNS) was 10.5 µM, the GI50 (UO-31 renal) was 1.29 µM and the TGI (UO-31 renal) was 10.6 µM. For the same compound, the GI50 (SK-MEL-2 melanoma) was 1.7 µM, the TGI (SK-MEL-2 melanoma) was 4.01 µM and the GI50 (NCI-H522 lung) was 1.46 µM. For the same compound, the TGI (NCI-H522 lung) was 4.47 µM, the GI50 (LOX IMVI melanoma) was 2.49 µM and the TGI (LOX IMVI melanoma) was 10.8 µM. It also gave a GI50 (SK-MEL-28 melanoma) of 3.77 µM, a TGI (SK-MEL-28 melanoma) of 22.8 µM and a GI50 (EKVX NSCLC) of 1.65 µM. The TGI (EKVX NSCLC) was 9.03 µM, the GI50 (HS 578T breast) was 2.1 µM and the TGI (HS 578T breast) was 7.35 µM. It also gave a GI50 (NCI-H460 lung) of 2.74 µM and a TGI (NCI-H460 lung) of 9.63 µM.
With Cc1cnc2n(c1=O)Cc1ccccc1CO2 the GI50 (MDA-MB-231 breast) was 11.8 µM, the TGI (MDA-MB-231 breast) was 32 µM and the GI50 (U251 CNS) was 15.7 µM. For the same compound, the TGI (U251 CNS) was 29.9 µM, the GI50 (UO-31 renal) was 18.2 µM and the TGI (UO-31 renal) was 44.5 µM. The GI50 (SK-MEL-2 melanoma) was 0.568 µM, the TGI (SK-MEL-2 melanoma) was 2.04 µM and the GI50 (NCI-H522 lung) was 3.8 µM. It also gave a TGI (NCI-H522 lung) of 18.8 µM, a GI50 (LOX IMVI melanoma) of 14.6 µM and a TGI (LOX IMVI melanoma) of 31.9 µM. The GI50 (SK-MEL-28 melanoma) was 20.9 µM, the TGI (SK-MEL-28 melanoma) was 45.1 µM and the GI50 (EKVX NSCLC) was 20.8 µM. The TGI (EKVX NSCLC) was 45.1 µM, the GI50 (HS 578T breast) was 23.9 µM and the TGI (HS 578T breast) was > 100 µM. The GI50 (NCI-H460 lung) was 17.7 µM and the TGI (NCI-H460 lung) was 40.2 µM.
